Measured values taken from article PMC8456950, “Structure‐Guided Design of G‐Protein‐Coupled Receptor Polypharmacology” (Angewandte Chemie (International Ed. in English), 2021).

Test system: unilaterally 6-OHDA lesioned rats
Test: Rotation test in unilaterally 6-OHDA lesioned rats (model of Parkinsonism)
Assay type: in vivo
Details: apomorphine 1 mg/kg IP, 6-OHDA lesioned rats
Description: Evaluation of compound 30 in rodent model of Parkinsonism. Male Sprague Dawley rats (150-200 g) were housed in air-conditioned rooms (12h dark/light cycle) at 20°C and a humidity of 53%. Experiments were performed in agreement with the European Communities Council Directive of 24 November 1986 (86/609/EEC) on the ethical use of animals and were approved by the local ethical committee (Stockholm North Ethical Committee, N105/16). Rats were anesthetized with ketamine (100 mg/kg, IP; Intervet)/xylazine (5 mg/kg, IP; Bayer, Kiel, Germany), pretreated with desipramine (25 mg/kg, IP; Sigma, St Louis, MO, USA)/pargyline (5 mg/kg, IP; Sigma), placed in a stereotaxi c instrument and injected with 6-OHDA (2.5 µl of a 5mg/ml solution; Sigma) into the median forebrain bundle (MFB) of the right hemisphere (AP -2.8 mm, ML -2.0 mm and V -9.0 mm). Two weeks after the unilateral 6-OHDA lesion, rats were injected with apomorphine (1 mg/kg, IP; Sigma) and their contralateral rotations were measured to determine the degree of nigrostriatal denervation. Four weeks after surgery, rats that were divided into two group according to the number of apomorphine-induced rotations. The rats were treated either with DMSO(17%)/saline (n=6) or compound 30 (n=7, 24 mg/kg, IP) dissolved in DMSO(17%)/saline. The number of rotations was calculated automatically with Noldus EthoVision XT11. 5 Software for 30 min following the drug administration. The two […]
groups were then compared by using a Mann-Whitney test. A second set of independent experiments using a new set of rats were carried out using the same protocol to assess the involvement of the D2R in the observed effect. In this case, rats were divided into four groups according to the number of apomorphine-induced rotations. The rats were treated with either DMSO(17%)/saline (n=6), raclopride (n=7, 2mg/kg, IP) dissolved in DMSO(17%)/saline, compound 30 (n=7, 24 mg/kg, IP) dissolved in DMSO(17%)/saline or the combination of raclopride (30 min pretreatment) and compound 30 (n=7). The rotation test was then performed for 30 min. […]

CN1CCc2cccc3c2[C@H]1Cc1ccc(O)c(O)c1-3 [apomorphine, reference compound]
rotational behaviour induced by control D2R agonist: contralateral rotational behaviour
